The source made the active and inactive calls.
Tests used:
[1] = biological target: T1, Polyadenylate-binding protein 1 (Homo sapiens, UniProt P11940); experiment: blockers of PABP interaction with poly(A) – biochemical, fluorescence polarization, […] (AID 2014)
[2] = biological target: T2, Eukaryotic translation initiation factor 4H (Homo sapiens, UniProt Q15056); experiment: inhibitors of translation initiation factor eIF4H – SAR follow-up (AID 435011); type: functional
[3] = biological target: DNA dC->dU-editing enzyme APOBEC-3G (Homo sapiens, UniProt Q9HC16); type: functional;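 also: Dose-response counterscreen measuring inhibition of APOBEC3G DNA deaminase activity, run while confirming APOBEC3A inhibitors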
Chain of DNA dC->dU-editing enzyme APOBEC-3G (Q9HC16 whole entry): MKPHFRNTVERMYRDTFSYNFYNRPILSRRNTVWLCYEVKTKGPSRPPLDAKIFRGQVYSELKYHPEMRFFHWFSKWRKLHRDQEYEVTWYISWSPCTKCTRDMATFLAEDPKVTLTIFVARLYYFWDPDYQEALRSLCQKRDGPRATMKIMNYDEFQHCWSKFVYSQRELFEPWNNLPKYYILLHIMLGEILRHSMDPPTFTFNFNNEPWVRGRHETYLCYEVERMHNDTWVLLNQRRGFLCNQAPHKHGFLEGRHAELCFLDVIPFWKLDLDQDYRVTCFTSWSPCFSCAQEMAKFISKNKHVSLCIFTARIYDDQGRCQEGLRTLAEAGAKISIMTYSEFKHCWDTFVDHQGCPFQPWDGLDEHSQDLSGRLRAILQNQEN

[4] = biological target: DNA dC->dU-editing enzyme APOBEC-3A (Homo sapiens, UniProt P31941); experiment: Dose Response confirmation of small molecule APOBEC3A DNA Deaminase Inhibitors via a fluorescence-based single-stranded DNA deaminase assay. [Related pubchem assays (depositor defined):AID493011, AID493024]; type: functional
Chain of DNA dC->dU-editing enzyme APOBEC-3A (P31941 whole entry): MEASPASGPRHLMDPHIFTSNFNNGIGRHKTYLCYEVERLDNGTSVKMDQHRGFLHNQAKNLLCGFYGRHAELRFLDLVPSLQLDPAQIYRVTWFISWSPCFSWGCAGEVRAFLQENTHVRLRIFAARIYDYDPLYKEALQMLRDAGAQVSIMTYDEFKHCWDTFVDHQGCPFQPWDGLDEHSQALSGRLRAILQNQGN

[5] = biological target: T2, Eukaryotic translation initiation factor 4H; experiment: eIF4H binding inhibition – biochemical, uHTS, fluorescence polarization, translation initiation inhibitor project, primary screen (AID 2012)
[6] = biological target: T1, Polyadenylate-binding protein 1; experiment: PABP inhibition in translation initiation, SAR follow-up (AID 435018); type: functional
[7] = reduction of Shn3 3'UTR-driven luciferase in osteoblasts – cell-based, Clone20 osteoblasts, firefly luciferase, cherry-picked, dose response (AID 624132); type: functional;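 also: firefly luciferase luminescence from reporter carrying the Shn3 3'UTR in osteoblasts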
[8] = biological target: T3, Alkaline phosphatase, tissue-nonspecific isozyme (Homo sapiens, UniProt P05186)
T3 sequence (P05186 whole entry): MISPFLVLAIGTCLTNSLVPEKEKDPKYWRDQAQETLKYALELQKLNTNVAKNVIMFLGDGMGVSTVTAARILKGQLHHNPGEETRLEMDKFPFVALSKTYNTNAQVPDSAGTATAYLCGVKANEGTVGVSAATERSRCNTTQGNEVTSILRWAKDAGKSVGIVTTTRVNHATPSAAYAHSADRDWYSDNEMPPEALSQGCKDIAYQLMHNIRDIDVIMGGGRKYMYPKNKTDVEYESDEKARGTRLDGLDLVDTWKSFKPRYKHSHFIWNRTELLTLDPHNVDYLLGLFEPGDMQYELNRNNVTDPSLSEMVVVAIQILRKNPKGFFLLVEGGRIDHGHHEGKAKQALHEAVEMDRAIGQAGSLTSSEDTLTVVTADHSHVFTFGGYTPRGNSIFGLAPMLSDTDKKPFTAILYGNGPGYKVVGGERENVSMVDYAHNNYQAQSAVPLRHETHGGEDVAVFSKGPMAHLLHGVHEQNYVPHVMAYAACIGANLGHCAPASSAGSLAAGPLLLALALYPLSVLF

[9] = loss of viability in HepG2 cells – cell-based, CellTiter-Glo, cherry-picked, cytotoxicity control for Shn3 inhibitor project, dose response (AID 624134); type: functional
[10] = biological target: Intestinal-type alkaline phosphatase (Mus musculus, UniProt P24822); experiment: PubChem AID 488785; type: functional
[11] = biological target: Intestinal-type alkaline phosphatase (Homo sapiens, UniProt P09923); experiment: inhibition of human intestinal alkaline phosphatase – biochemical, dose response (AID 488876); type: functional
Chain of Intestinal-type alkaline phosphatase (Homo sapiens, UniProt P09923) (P09923 whole entry): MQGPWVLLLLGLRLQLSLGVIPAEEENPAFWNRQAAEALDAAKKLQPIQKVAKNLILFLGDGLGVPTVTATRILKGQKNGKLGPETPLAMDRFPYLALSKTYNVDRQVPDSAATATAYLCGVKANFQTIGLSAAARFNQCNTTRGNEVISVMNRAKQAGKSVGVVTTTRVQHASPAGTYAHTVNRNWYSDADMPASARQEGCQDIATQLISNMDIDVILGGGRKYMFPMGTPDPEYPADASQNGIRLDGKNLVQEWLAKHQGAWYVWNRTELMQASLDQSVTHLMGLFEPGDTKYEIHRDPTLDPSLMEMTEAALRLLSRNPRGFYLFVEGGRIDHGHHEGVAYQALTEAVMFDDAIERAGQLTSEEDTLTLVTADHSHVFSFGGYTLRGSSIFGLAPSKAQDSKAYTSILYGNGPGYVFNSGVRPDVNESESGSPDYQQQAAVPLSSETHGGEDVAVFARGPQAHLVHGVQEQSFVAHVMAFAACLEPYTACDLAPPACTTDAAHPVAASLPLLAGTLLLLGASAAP

[12] = non-specific 3'UTR reporter inhibition in Clone20-Shn3RL – cell-based, Renilla luciferase, cherry-picked, counter-screen for Shn3 inhibitor project, dose response (AID 624133); type: functional
[13] = biological target: T3, Alkaline phosphatase, tissue-nonspecific isozyme; experiment: TNAP enzyme inhibition by screening hits, dose response, selectivity assay for mouse IAP inhibitor project, biochemical, human TNAP, uHTS hits (AID 488906); type: functional
[14] = biological target: Bifunctional protein GlmU (Mycobacterium tuberculosis, UniProt P9WMN3); experiment: Inhibitors of Mycobacterial Glucosamine-1-phosphate acetyl transferase (GlmU). Secondary screen.; design: species or system Mycobacterium tuberculosis H37Rv
Chain of Bifunctional protein GlmU (P9WMN3 whole entry): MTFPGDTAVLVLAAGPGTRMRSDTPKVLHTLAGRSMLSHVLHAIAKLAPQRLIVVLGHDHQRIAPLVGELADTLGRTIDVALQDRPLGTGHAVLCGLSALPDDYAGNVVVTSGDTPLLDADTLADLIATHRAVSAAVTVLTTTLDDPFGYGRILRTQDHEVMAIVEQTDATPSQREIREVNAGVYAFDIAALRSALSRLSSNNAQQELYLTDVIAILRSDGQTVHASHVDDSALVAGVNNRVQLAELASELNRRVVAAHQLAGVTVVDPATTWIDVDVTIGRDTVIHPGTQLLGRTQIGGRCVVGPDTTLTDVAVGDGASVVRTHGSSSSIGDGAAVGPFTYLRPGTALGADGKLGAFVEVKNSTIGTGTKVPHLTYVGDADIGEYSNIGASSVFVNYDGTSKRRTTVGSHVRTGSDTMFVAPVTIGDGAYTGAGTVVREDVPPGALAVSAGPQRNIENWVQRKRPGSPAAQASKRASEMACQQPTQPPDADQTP

[15] = biological target: T4, Long-chain-fatty-acid--AMP ligase FadD28 (Mycobacterium tuberculosis, UniProt P9WQ59); experiment: Fluorescence polarization aasay to screen for inhibitors that compete for the binding of FadD28 to a bisubstrate Measured in Biochemical System Using Plate Reader - 2147-01_Inhibitor_Dose_CherryPick_Activity.; type: functional, Mycobacterium tuberculosis H37Rv
T4 sequence (P9WQ59 whole entry): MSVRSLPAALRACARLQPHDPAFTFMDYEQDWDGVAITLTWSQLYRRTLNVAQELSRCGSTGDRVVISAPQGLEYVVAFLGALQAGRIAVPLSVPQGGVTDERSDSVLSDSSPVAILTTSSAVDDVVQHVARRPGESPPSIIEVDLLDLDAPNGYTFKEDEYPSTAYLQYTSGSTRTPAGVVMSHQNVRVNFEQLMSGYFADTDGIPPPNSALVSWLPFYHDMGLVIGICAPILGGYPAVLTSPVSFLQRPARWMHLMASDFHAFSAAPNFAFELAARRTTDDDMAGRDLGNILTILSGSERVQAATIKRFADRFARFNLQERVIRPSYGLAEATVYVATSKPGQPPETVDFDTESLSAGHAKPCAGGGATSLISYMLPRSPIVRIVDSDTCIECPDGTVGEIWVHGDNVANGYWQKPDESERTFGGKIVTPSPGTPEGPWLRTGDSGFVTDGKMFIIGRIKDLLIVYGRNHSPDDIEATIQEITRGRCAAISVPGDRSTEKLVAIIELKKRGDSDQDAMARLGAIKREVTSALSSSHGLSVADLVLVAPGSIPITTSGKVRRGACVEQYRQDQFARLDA

[16] = biological target: T5, Carboxy-terminal domain RNA polymerase II polypeptide A small phosphatase 1 (Homo sapiens, UniProt Q9GZU7); experiment: CTDSP1 inhibitors, concentration-response, biochemical, absorbance readout, ultra-high-throughput screen actives (AID 540297); type: functional
T5 sequence (Q9GZU7 whole entry): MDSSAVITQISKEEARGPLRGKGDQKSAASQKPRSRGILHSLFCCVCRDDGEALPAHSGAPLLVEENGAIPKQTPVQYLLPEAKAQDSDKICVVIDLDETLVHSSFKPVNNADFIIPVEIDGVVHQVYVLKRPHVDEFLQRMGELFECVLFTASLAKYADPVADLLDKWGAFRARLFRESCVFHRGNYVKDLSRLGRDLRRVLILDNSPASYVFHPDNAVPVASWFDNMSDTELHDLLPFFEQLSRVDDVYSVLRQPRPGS

[17] = biological target: T6, Histone-lysine N-methyltransferase NSD2 (Homo sapiens, UniProt O96028); type: biochemical
T6 sequence (O96028 whole entry): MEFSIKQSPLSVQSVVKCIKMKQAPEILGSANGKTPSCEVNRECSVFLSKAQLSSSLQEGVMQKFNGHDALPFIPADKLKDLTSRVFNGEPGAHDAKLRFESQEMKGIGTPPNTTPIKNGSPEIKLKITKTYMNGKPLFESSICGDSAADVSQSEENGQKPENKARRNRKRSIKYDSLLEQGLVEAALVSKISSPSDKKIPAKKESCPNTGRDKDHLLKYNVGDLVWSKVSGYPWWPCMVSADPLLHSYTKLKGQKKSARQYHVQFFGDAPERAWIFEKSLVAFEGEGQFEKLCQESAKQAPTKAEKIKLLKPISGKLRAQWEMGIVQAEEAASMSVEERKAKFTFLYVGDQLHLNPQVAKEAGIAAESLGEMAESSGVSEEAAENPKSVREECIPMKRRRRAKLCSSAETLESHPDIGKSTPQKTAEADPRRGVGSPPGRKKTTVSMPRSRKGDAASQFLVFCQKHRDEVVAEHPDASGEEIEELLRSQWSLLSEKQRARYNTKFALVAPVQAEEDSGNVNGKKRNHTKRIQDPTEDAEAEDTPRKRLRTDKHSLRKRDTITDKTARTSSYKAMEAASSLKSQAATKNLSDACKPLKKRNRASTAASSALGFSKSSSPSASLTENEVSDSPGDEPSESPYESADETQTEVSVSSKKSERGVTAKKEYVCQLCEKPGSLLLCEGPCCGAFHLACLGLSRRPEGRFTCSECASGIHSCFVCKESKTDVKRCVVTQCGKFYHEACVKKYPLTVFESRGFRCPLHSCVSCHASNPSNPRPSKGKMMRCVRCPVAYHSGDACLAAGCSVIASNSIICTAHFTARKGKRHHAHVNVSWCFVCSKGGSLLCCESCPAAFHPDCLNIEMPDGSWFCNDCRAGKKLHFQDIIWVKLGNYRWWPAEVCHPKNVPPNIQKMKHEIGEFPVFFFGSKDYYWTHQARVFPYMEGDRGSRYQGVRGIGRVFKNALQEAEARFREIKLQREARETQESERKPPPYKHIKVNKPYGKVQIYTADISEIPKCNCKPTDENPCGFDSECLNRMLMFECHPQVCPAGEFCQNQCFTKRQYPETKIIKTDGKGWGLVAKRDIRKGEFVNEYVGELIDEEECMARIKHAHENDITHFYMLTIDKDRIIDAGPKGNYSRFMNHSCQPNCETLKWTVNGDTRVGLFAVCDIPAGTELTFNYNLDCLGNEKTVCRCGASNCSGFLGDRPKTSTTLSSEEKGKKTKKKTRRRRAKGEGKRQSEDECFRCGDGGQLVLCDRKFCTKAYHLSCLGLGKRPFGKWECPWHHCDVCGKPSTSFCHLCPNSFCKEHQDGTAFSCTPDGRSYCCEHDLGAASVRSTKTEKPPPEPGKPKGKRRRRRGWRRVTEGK

[18] = biological target: DNA (cytosine-5)-methyltransferase 1 (Homo sapiens, UniProt P26358); experiment: inhibition of DNA methylation by DNMT1 – biochemical, fluorescent molecular beacon, confirmation (AID 602386); type: functional
Chain of DNA (cytosine-5)-methyltransferase 1 (P26358 whole entry): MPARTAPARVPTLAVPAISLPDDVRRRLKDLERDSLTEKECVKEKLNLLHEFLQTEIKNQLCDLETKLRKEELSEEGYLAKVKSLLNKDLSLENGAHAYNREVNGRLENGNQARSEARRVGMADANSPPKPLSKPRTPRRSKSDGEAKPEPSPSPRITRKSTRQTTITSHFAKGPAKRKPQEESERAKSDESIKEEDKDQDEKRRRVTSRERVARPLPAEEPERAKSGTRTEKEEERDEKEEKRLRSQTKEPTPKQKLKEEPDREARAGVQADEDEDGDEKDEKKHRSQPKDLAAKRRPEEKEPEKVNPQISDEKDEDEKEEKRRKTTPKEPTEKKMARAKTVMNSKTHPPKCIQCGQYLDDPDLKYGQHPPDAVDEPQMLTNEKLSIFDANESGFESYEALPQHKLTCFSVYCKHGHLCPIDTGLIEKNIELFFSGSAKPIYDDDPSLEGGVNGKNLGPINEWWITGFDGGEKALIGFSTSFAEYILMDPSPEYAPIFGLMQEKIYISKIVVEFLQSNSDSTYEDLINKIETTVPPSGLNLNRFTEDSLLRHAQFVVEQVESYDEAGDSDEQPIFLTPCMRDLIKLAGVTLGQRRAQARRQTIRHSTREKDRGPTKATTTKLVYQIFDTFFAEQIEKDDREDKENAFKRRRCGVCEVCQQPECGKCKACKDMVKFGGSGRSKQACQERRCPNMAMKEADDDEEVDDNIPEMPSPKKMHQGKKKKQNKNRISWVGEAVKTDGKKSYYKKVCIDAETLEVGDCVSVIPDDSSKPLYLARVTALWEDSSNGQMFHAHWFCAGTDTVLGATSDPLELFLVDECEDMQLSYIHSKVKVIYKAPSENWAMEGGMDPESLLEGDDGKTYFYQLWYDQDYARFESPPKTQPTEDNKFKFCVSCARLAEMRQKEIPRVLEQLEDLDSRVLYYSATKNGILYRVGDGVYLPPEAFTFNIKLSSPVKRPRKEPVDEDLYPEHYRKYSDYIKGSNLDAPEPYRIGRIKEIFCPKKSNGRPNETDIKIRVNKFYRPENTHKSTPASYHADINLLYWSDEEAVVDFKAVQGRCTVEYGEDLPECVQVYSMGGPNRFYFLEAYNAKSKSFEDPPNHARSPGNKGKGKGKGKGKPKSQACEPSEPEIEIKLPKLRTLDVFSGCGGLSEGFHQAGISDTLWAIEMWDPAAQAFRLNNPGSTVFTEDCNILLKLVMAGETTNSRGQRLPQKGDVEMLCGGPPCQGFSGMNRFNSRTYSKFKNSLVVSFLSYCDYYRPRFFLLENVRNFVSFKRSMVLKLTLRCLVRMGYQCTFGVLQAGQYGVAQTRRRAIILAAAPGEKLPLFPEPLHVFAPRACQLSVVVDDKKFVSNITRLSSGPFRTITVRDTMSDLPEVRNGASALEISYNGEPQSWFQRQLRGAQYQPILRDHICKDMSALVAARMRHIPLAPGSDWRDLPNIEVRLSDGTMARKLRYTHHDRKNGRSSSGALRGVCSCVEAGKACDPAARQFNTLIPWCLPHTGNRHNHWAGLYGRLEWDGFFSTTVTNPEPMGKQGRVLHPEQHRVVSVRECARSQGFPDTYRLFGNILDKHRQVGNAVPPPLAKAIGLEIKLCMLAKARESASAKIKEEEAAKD

Leucine aminopeptidase = Leucine aminopeptidase (Plasmodium falciparum 3D7, UniProt Q8IL11); experiment: P. falciparum M17LAP inhibitors, primary screen, biochemical, fluorogenic H-Leu-NHMec substrate, 1536-well (AID 1619); type: functional
Chain of Leucine aminopeptidase (Q8IL11 whole entry): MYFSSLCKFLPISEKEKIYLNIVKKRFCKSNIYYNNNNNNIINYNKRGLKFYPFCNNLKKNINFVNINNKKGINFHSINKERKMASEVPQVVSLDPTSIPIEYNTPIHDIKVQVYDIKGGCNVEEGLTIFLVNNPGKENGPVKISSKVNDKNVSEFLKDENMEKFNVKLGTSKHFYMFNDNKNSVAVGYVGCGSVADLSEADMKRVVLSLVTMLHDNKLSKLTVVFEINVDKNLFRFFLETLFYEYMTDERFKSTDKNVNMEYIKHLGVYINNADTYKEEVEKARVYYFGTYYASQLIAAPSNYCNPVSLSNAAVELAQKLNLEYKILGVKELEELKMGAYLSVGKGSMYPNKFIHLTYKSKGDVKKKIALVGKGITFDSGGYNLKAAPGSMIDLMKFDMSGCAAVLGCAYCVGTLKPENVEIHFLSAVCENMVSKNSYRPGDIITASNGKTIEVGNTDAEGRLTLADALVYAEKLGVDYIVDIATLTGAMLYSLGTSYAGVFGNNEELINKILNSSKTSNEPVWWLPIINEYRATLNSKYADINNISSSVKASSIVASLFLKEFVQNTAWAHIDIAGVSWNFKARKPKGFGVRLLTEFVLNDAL

ORF 73 = biological target: T7, ORF 73 (Human herpesvirus 8, UniProt O40947); experiment: KSHV LANA DNA-binding disruption – biochemical, fluorescence polarization, cherry-picked samples, dose response (AID 504725); design: species or system Human gammaherpesvirus 8;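 also: fluorescence polarization of a labeled DNA duplex reporting LANA DNA binding; potency is for inhibitors that block LANA binding to the DNA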
T7 sequence (O40947 whole entry): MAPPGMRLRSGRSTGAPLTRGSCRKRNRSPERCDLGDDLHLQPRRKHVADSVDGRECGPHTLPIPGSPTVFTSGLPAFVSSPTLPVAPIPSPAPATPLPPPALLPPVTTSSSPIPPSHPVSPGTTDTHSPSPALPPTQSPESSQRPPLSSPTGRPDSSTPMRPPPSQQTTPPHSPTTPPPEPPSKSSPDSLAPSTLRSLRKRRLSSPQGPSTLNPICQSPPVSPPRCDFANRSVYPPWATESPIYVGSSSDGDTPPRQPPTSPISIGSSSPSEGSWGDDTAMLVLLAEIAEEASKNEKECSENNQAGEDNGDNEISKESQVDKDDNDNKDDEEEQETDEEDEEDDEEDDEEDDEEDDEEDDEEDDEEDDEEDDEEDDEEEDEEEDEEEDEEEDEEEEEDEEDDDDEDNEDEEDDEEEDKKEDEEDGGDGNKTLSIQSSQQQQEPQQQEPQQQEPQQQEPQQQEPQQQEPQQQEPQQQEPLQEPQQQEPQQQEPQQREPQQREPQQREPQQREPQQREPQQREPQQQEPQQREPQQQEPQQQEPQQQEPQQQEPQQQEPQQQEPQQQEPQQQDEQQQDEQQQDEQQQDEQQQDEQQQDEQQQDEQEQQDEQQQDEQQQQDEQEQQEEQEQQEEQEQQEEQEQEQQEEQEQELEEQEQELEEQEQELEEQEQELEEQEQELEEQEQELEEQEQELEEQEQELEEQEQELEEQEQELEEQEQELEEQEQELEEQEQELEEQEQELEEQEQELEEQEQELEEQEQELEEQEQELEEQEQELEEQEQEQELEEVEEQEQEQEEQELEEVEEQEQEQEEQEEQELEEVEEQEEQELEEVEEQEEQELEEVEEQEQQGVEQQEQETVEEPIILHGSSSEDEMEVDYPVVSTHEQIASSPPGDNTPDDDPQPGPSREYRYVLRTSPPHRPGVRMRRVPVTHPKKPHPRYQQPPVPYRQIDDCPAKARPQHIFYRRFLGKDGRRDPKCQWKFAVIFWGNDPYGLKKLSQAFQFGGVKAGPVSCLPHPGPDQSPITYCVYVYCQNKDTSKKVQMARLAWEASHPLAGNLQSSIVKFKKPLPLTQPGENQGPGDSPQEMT

X-box-binding protein 1 = X-box-binding protein 1 (Homo sapiens, UniProt P17861); type: functional, Cricetulus griseus;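 also: confirmatory dose-response counter-screen serving a CHOP assay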
Chain of X-box-binding protein 1 (P17861 whole entry): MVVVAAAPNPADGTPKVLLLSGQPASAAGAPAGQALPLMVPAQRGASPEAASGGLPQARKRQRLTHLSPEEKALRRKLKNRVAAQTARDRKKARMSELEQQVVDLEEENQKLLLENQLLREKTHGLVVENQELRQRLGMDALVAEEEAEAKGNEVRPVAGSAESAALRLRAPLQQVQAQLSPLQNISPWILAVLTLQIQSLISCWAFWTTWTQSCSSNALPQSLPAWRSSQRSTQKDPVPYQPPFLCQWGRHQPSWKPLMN

T1 sequence (P11940 whole entry): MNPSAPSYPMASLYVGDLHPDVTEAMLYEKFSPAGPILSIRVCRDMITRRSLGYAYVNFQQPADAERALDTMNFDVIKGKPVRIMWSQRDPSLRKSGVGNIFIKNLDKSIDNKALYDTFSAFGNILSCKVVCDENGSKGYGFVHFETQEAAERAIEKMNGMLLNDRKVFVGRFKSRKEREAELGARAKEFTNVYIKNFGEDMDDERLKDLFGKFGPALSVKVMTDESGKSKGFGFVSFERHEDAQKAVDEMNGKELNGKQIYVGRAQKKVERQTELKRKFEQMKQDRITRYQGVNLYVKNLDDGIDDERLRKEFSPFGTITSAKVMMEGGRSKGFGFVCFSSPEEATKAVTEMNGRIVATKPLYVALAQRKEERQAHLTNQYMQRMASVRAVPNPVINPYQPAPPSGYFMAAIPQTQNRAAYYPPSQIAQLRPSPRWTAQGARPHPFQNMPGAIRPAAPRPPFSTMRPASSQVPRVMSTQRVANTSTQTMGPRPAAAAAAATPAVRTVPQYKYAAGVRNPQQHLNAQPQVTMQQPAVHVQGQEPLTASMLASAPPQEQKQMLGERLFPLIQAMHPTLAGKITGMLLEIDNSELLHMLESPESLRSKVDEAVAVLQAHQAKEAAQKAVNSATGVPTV

CCN1CCN(S(=O)(=O)c2ccc(Cl)c(C(=O)N(CC)CC(=O)Nc3ccc(OC)cc3)c2)CC1
IC50 [1]: 3.26 µM (active) | IC50 [2]: 21 µM (active) | IC50 [3]: 3.43 µM (active) | IC50 [4]: 3.4 µM (active) | IC50 [5]: 85.9 µM (active) | IC50 [6]: 4.68 µM (active)

Cc1ccc(N=C(N)Nc2nc(C)cc(N3CCCCC3)n2)c(C)c1
AC50 [7]: 0.891 µM (active) | EC50 [8]: 71.7 µM (not active) | AC50 [9]: 5.74 µM (active) | IC50 [10]: 3.34 µM (active) | IC50 [11]: 70.1 µM (active) | AC50 [12]: 0.639 µM (active) | IC50 [13]: 32.1 µM (active)

Cc1cc(/C=C2\C(=O)NC(=O)N(Cc3ccccc3)C2=O)c(C)n1-c1ccc(Cl)c(C(=O)O)c1
IC50 [14]: 71.9 µM (active) | AC50 [15]: 35.6 µM (active) | IC50 [16]: 1.02 µM (active) | AC50 [17]: 5.47 µM (active) | IC50 [18]: 3.35 µM (active) | IC50 (Leucine aminopeptidase): 72.7 µM (active) | AC50 (ORF 73): 76.2 µM (active)

CC(C)CN=C(S)NNC(=O)c1ccc2c(c1)OCO2
EC50 [8]: 40.7 µM (active)

CC(=O)Nc1cccc(NC(=O)CSc2ccc(-c3ccco3)nn2)c1
IC50 [1]: 46.3 µM (active) | IC50 [2]: 25 µM (active) | IC50 [5]: 10.3 µM (active) | IC50 [6]: > 100 µM (inactive)

Cc1ccc(/C=N/n2c(S)nnc2C2CCCCC2)s1
Absolute IC50 (XBP1) (X-box-binding protein 1): 10 µM

Source: ChEMBL document CHEMBL1201862, “PubChem BioAssay data set” (2004)
